# Source: patent US4378366A, “2-[Trifluoroethylamine]oxazolines” (Science Union et Cie, priority 1978, dated 1983)
# Assay: solubility in dilute aqueous hydrochloric acid
# Type: physicochemical
# Details: dilute or N/10 aqueous hydrochloric acid; hydrochloride formed
row,SMILES,solubility in hydrochloric acid solution
1,"CC(NC1=NCCO1)C(F)(F)F (racemic) [I, dl 2-(α-trifluoromethylethylamino)oxazoline]",soluble in the dilute aqueous solutions of hydrochloric acid
2,"FC(F)(F)C(NC1=NCCO1)C1CC1 (racemic) [II, dl 2-[(1-trifluoromethyl 1-cyclopropyl)methylamino]oxazoline]",easily soluble in an aqueous solution of the just calculated amount of N/10 hydrochloric acid
3,"CC(C)CC(NC1=NCCO1)C(F)(F)F (racemic) [III, dl 2-(1-trifluoromethyl 3-methylbutylamino)oxazoline]",soluble in dilute hydrochloric acid
4,"FC(F)(F)C(F)(F)C(NC1=NCCO1)C1CCCCC1 (racemic) [X, dl 2-[(1-pentafluoroethyl 1-cyclohexyl)methylamino]oxazoline]",soluble in N/10 hydrochloric acid solutions
5,"FC(F)(F)C(NC1=NCCO1)C1CCCCC1 (single isomer, unassigned) [IV, 2-[(1-trifluoromethyl 1-cyclohexyl)methylamino]oxazoline (dextrorotatory isomer)]",soluble in dilute hydrochloric acid
6,"FC(F)(F)C(NC1=NCCCN1)C1CCCCC1 (single isomer, unassigned) [XI, 2-[(1-trifluoromethyl 1-cyclohexyl)methylamino]tetrahydropyrimidine (laevorotatory isomer)]",soluble in N/10 hydrochloric acid solutions
